Results as given in PMC10541198, “Specific quinone reductase 2 inhibitors reduce metabolic burden and reverse Alzheimer’s disease phenotype in mice” (The Journal of Clinical Investigation, 2023).
Several values for one entry are separate records, joined by “and”; a condition that tells them apart may be missing. Equal values may be shown once. Entries after “also recorded” stand apart in the source; their conditions may differ.

How the values were obtained:
[1] = test system: 5xFAD mice; experiment: Nesting in 5xFAD mice; format: in vivo, mouse; design: key to Sup. Fig. 5-2J, nesting: nesting score on a scale of 1 to 5
Protocol: Each home cage was given six identical portions of cotton wool tubes and 24 h later the nest made was photographed from above. The images were gi ven the names of the respective cages, whi ch were coded […]
(see ‘Blinding Measures for Animal Experiments’ section), and were analyzed by an experimenter that was blind to the conditions, groups and cage codes. […]
Analysis of the images was done blind, by an experimenter unaware of the experimental conditions or details, using Imaris (Bitplane) software. Surface reconstruction module was used to extract the data as volumes and / or si gnal intensities of the used markers (4-HNE, phospho- t au, amyloid β and Iba 1) .

[2] = Solubility in water / saline; format: physicochemical
[3] = Drinking rate during chronic ingestion; format: in vivo, mouse; design: Sup. Fig. 5-2B, drinking rate: unit: ml/g/day
Protocol: Supplementary Figure 6. Chronic Drinking of 50 mg/kg YB -537 for of 1 Month Causes no Changes
in General Mouse Physiology or Behavior but Improves Nesting Behavior Over Time.
(A) Weight of male and female, 8–9- month-old 5xFAD mice over the course of 25 days while consuming
(B) Drinking rate of water or YB-537 in the cages of the 5xFAD mice. […]

[4] = test system: p-tau; experiment: IHC of p-tau (AT8) in 5xFAD brain sections; format: in vivo, mouse; details: for p-tau normalized volume (individual mice): CA1, 5xFAD 1 month; for Figure 9C, IHC signal / Sup. Fig. 6-1C, IHC signal: individual animals; for p-Tau vs vehicle: cortex, 5xFAD 1 month
From the text: Following the behavioral experiments, we assessed brain pathologies associated with AD present in the 5xFAD mice ([37]). Therefore, 5 days following the last behavioral experiment, and 1 month after the start of YB-537 consumption, mice were sacrificed, and coronal brain sections were used for IHC. Since the CA1 region of the hippocampus is affected during AD pathogenesis ([37]), and this brain region is involved in the behavioral paradigms used here, we acquired images of CA1. This was done with an Olympus IX83 confocal microscope using the same settings, antibodies, and exposures in all mice. Images were analyzed using Imaris (Bitplane; see methods). For each mouse, 3 coronal sections were used per antibody. In each section, the same region of CA1 was acquired, using the same image frame size and resolution, at all possible depths of the section — using a Z-stack of the whole section — to allow measurement of the fluorescent antibody marker volume, which was normalized to the brain volume from which it was taken. First, we measured oxidative stress, as indicated by 4-HNE ([38]) (Abcam, ab48506).
Perfused and fixed brain slices were blocked with 10% normal donkey serum (DNS) and 0.2% triton (Sigma-Aldrich) in PBS. Antibodies, including 4-HNE (AbCam, ab48506), Iba1 (AbCam, ab5076), AT-8 (Thermo, MN1020), Amyloid β (AbCam, ab201060), diluted in PBS with 10% DNS, were incubated at 4°C overnight. Secondary antibodies including donkey-anti-goat Alexa Fluor 568 (AbCam, ab175704), donkey-anti-mouse Cy 5 (Jackson Immuno Research, 715-175-151), and donkey-anti-rabbit DyLight 488 (AbCam, ab98488) all diluted 1:500 in PBS with 1% BSA, were applied to the slices at RT for 2 hours the next day. Slices were mounted onto glass slides using DAPI containing Vectashield (H-1200). Images were taken using a confocal microscope (Olympus IX83). Three slices were used per mouse per antibody. Tiling images of the dorsal CA1 and cortex (Bregma: –1.58mm to –2.30mm) were taken using ×20 objective, acquiring a Z-stack of the whole section. Analysis of the images was done blind by an experimenter unaware of the experimental conditions or details, using Imaris (Bitplane) software. A surface reconstruction module was used to extract the data as volumes of the used markers (4-HNE, phospho-tau, amyloid β, GFAP, and Iba1). Marker volume and intensity were normalized to the corresponding brain volume. The normalized value was averaged for each triplicate and presented here. […]
Brains were then briefly removed and placed in chilled, 4% PFA for 48 h, f oll owe d by immersion in 30% sucrose in 0.1 M PBS for a furt her 48 h. Bra i ns wer e t h e n stored at -80°C, until t he y were sliced into 40µm coronal sections usinga Lei ca CM 1950cryostat. Sli ces were then washed x3 in PBS and bl oc ke d for 1 h at RT using 10% normal donkey serum (DNS) and 0.2% triton (Sigma-Aldrich) in PBS. Antibodies, including 4- HNE (1:500, AbCam, ab48506), Iba1 (1:2,000, AbCam, ab5076), GFAP (Abcam, ab53554), phospho- tau (1:1,000, Thermo, MN1020) and amyloid β (1:1,000, AbCam, ab201060) diluted in PBS with 10% DNS were incubated at 4°C overnight. The next day, the slices were washed x3 times in PBS, and secondary antibodies including donkey anti goat A l e x a Fluor 568 (AbCam, ab175704), donkey anti-mouse Cy 5 (Jackson Immuno Research, 715- 175- 151) and donkey anti-rabbit DyLight 488 (AbCam, ab98488) all diluted 1:500 in PBS with 1% BSA, were applied to the slices at RT for 2 h. Following the incubation, the slices were washed x3 times in PBS, mounted onto gl ass slides, were uniformly covered in DAPI containing Vectashield (H-1200) and coverslips were a dde d. […]

For Cc1ccc(-c2cn3cccc(C)c3n2)cc1S(=O)(=O)N1CCNCC1 [YB-537], the Nest quality ([1]; 5xFAD 1 month, regardless of sex (Pearson r)) was “significantly correlated to time under treatment”, the “Sup. Fig. 5-2J, nesting” value ([1]; Females, Day 0) was 2 and 3 and the “Sup. Fig. 5-2J, nesting” value ([1]; Females, Day 7) was 3 and 4. The “Sup. Fig. 5-2J, nesting” value ([1]; Females, Day 14) was 4, the “Sup. Fig. 5-2J, nesting” value ([1]; Females, Day 21) was 5 and 4 and the “Sup. Fig. 5-2J, nesting” value ([1]; Males + Females, Day 0) was 3 and 2. The “Sup. Fig. 5-2J, nesting” value ([1]; Males + Females, Day 7) was 4 and 3, the “Sup. Fig. 5-2J, nesting” value ([1]; Males + Females, Day 14) was 4 and 3 and the “Sup. Fig. 5-2J, nesting” value ([1]; Males + Females, Day 21) was 5 and 4. For the same compound, the “Sup. Fig. 5-2J, nesting” value ([1]; Males, Day 0) was 2 and 3, the “Sup. Fig. 5-2J, nesting” value ([1]; Males, Day 7) was 3 and 4 and the “Sup. Fig. 5-2J, nesting” value ([1]; Males, Day 14) was 4 and 3. For the same compound, the “Sup. Fig. 5-2J, nesting” value ([1]; Males, Day 21) was 4 and 5, the solubility in water [2] was “complete solution; also recorded: water soluble” and the “solubility in saline vehicle” value ([2]; PK formulations 2 and 10 mg/ml, HCl salt) was “fully dissolved”. For the same compound, the average drinking rate ([3]; 5xFAD females) was 0.170 ± 0.011 mL/g/day, the average drinking rate ([3]; 5xFAD males) was 0.170 ± 0.035 mL/g/day and the “Sup. Fig. 5-2B, drinking rate” value ([3]; Female) was 0.159 and 0.182. For the same compound, the “Sup. Fig. 5-2B, drinking rate” value ([3]; Male) was 0.207 and 0.135, the “p-tau normalized volume (individual mice)” value (shortened to “p-tau normalized volume”) ([4]; Females) was 0.0465 and 0.0384 and 0.0492 and 0.0132 and 0.0255 and 0.0111 and 0.0090 and the “p-tau normalized volume” value ([4]; Males) was 0.0610 and 0.0859 and 0.0662 and 0.0488 and 0.0445 and 0.0550 and 0.1044 and 0.0487 and 0.0628. For the same compound, the “p-tau normalized volume” value ([4]; Males + Females) was 0.0465 and 0.0384 and 0.0492 and 0.0550 and 0.1044 and 0.0487 and 0.0628 and 0.0610 and 0.0859 and 0.0662 and 0.0488 and 0.0445 and 0.0132 and 0.0255 and 0.0111 and 0.0090, the “Figure 9C, IHC signal” value ([4]; Cortex) was 0.0130 and 0.0160 and 0.0210 and 0.0219 and 0.0108 and 0.0168 and 0.0118 and 0.0284 and 0.0147 and the “Sup. Fig. 6-1C, IHC signal” value ([4]; Females) was 0.0087 and 0.0158 and 0.0323 and 0.0264 and 0.0119 and 0.0169 and 0.0098. For the same compound, the “Figure 9C, IHC signal” value ([4]; Hippocampus) was 0.0315 and 0.0219 and 0.0395 and 0.0356 and 0.0234 and 0.0118 and 0.0425 and 0.0378 and 0.0364, the “Sup. Fig. 6-1C, IHC signal” value ([4]; Males) was 0.0177 and 0.0343 and 0.0259 and 0.0422 and 0.0294 and 0.0273 and 0.0409 and 0.0167 and 0.0342 and the p-Tau vs vehicle ([4]; females) was “unchanged”. For the same compound, the p-Tau vs vehicle ([4]; males) was “unchanged” and the p-Tau vs vehicle ([4]; total population) was “unchanged”.
